Reference: patent publication US20230055953A1, “AGENT FOR ADJUVANT THERAPY” (TAIHO PHARMACEUTICAL CO., LTD., priority 2019, published 2023)

Tested on: B16F10.A24/SART2^93-101 cells
Test: Lung metastatic model: intravenous transplantation of B16F10.A24/SART2^93-101 cells, count of metastatic pulmonary nodules
Format: in vivo, mouse
Conditions: B2m^tm2(HLA-A24/H-2Db/B2M)Tai mice; emulsion with Montanide ISA 51 VG subcutaneously on Day 1, Day 8, Day 15; lungs resected Day 28; compared with control group, p=0.0014, Student's t-test
Method: Eleven-week-old B2m^tm2(HLA-A24/H-2Db/B2M)Tai mice (J. Immunol.: 198, 516-527, 2017) were randomly divided into groups each consisting of 10 mice. The day of grouping was designated Day 0.
The B16F10.A24/SART2^93-101 cells (PLoS One: 13, e0199249, 2018) were cultured using the Dulbecco's Modified Eagle's Medium (Sigma-Aldrich) containing 10% FBS. The B16F10.A24/SART2^93-101 cells were subjected to subculture in an incubator at 37° C. in the presence of 5% CO2 two times a week at a ratio of 1:25 to 1:40.
On the day of grouping of mice (Day 0), the B16F10.A24/SART2^93-101 cell suspension prepared using D-PBS (FUJIFILM Wako Pure Chemical Corporation) was transplanted into the tail veins of mice at 1×10^6 cells/0.1 ml.
The mouse models are found to undergo recurrence of tumor cells transplanted into the blood in the lung. Accordingly, such mouse models can be regarded as simulating the recurrence mechanism caused by cancer metastasis in humans. By verifying the effects in such models, accordingly, the inhibitory effects on tumor metastasis and recurrence can be verified. […]
The lungs were resected 28 days after transplantation of the B16F10.A24/SART2^93-101 cells (Day 28), and the number of metastatic pulmonary nodules was visually counted.

## PEP5-RR-PEP9-RR-PEP6-RR-PEP4 (DYSARWNEIRRQIRPIFSNRRRVYDYNCHVDLRRLLQAEAPRL) [TPV06]
  number of metastatic pulmonary nodules: significantly reduced
